Read-outs that look alike come from different tables or passages of the source.
Assays:
RTA [1] = format: cell-based, Kaposi's sarcoma-associated herpesvirus (KSHV)
RTA [2] = format: cell-based, Kaposi's sarcoma-associated herpesvirus (KSHV); remark: listed apart in the source
RTA [3] = format: cell-based, Kaposi's sarcoma-associated herpesvirus (KSHV); remark: listed apart in the source
RTA [4] = format: cell-based, Kaposi's sarcoma-associated herpesvirus (KSHV); remark: listed apart in the source
LANA = format: cell-based, Kaposi's sarcoma-associated herpesvirus (KSHV)
BCBL-1 cells [5] = conditions: for relative percentage of fluorescence intensity (cell viability): 1 h
[6] = tested on: ORF50 leader sequence (RP1 P-PMO target region)-luciferase RNA; format: biochemical, Kaposi's sarcoma-associated herpesvirus (KSHV)
LP1/luciferase RNA = experiment: Cell-free reporter assay with LP1/luciferase RNA; format: biochemical, Kaposi's sarcoma-associated herpesvirus (KSHV); conditions: data not shown
BCBL-1 cells [7] = experiment: PMO/P-PMO uptake and persistence in BCBL-1 cells; format: cell-based
KSHV = format: cell-based, Kaposi's sarcoma-associated herpesvirus (KSHV)

CC(=O)N1C[C@@H](COP(=O)(N(C)C)N2C[C@@H](COP(=O)(N(C)C)N3C[C@@H](COP(=O)(N(C)C)N4C[C@@H](COP(=O)(N(C)C)N5C[C@@H](COP(=O)(N(C)C)N6C[C@@H](COP(=O)(N(C)C)N7C[C@@H](COP(=O)(N(C)C)N8C[C@@H](COP(=O)(N(C)C)N9C[C@@H](COP(=O)(N(C)C)N%10C[C@@H](COP(=O)(N(C)C)N%11C[C@@H](COP(=O)(N(C)C)N%12C[C@@H](COP(=O)(N(C)C)N%13C[C@@H](COP(=O)(N(C)C)N%14C[C@@H](COP(=O)(N(C)C)N%15C[C@@H](COP(=O)(N(C)C)N%16C[C@@H](COP(=O)(N(C)C)N%17C[C@@H](COP(=O)(N(C)C)N%18C[C@@H](COP(=O)(N(C)C)N%19C[C@@H](COP(=O)(N(C)C)N%20C[C@@H](COP(=O)(N(C)C)N%21CCN(C(=O)CCCN%22C(=O)CC(SC[C@H](NC(=O)[C@H](CCCNC(=N)N)NC(=O)[C@H](CCCNC(=N)N)NC(=O)[C@H](CCCNC(=N)N)NC(=O)[C@H](CCCNC(=N)N)NC(=O)[C@H](Cc%23ccccc%23)NC(=O)[C@H](Cc%23ccccc%23)NC(=O)[C@H](CCCNC(=N)N)NC(=O)[C@H](CCCNC(=N)N)NC(=O)[C@H](CCCNC(=N)N)NC(=O)[C@H](CCCNC(=N)N)NC(=O)[C@@H](N)CCCNC(=N)N)C(N)=O)C%22=O)CC%21)O[C@@H](n%21cnc%22c(=O)[nH]c(N)nc%22%21)C%20)O[C@@H](n%20cnc%21c(N)ncnc%21%20)C%19)O[C@@H](n%19cc(C)c(=O)[nH]c%19=O)C%18)O[C@@H](n%18cnc%19c(N)ncnc%19%18)C%17)O[C@@H](n%17cc(C)c(=O)[nH]c%17=O)C%16)O[C@@H](n%16cnc%17c(N)ncnc%17%16)C%15)O[C@@H](n%15ccc(N)nc%15=O)C%14)O[C@@H](n%14cnc%15c(N)ncnc%15%14)C%13)O[C@@H](n%13ccc(N)nc%13=O)C%12)O[C@@H](n%12cnc%13c(N)ncnc%13%12)C%11)O[C@@H](n%11cnc%12c(N)ncnc%12%11)C%10)O[C@@H](n%10ccc(N)nc%10=O)C9)O[C@@H](n9cnc%10c(N)ncnc%109)C8)O[C@@H](n8ccc(N)nc8=O)C7)O[C@@H](n7ccc(N)nc7=O)C6)O[C@@H](n6ccc(N)nc6=O)C5)O[C@@H](n5cnc6c(N)ncnc65)C4)O[C@@H](n4cnc5c(N)ncnc54)C3)O[C@@H](n3cc(C)c(=O)[nH]c3=O)C2)O[C@@H](n2cc(C)c(=O)[nH]c2=O)C1 (stereo partly drawn) [CP1]
RTA-positive cells by IFA (RTA [1]): approximately 20% | number of RTA-positive cells by IFA in BC-1 cells (RTA [2]): no effect | change in RTA expression by Western blot (RTA [3]): no detectable change | RTA flow cytometry profile (RTA [4]): same profile as the mock treatment control | LANA staining by IFA after three treatments (LANA): no detectable effect | cytotoxicity (BCBL-1 cells [5]): no detectable cytotoxicity | relative percentage of fluorescence intensity (cell viability) (BCBL-1 cells [5]; 8 μM): 106% | relative percentage of fluorescence intensity (cell viability) (BCBL-1 cells [5]; 16 μM): 107%

H-RRRRRFFRRRRC-NH2 [LP1]
effect on luciferase translation (negative control P-PMO) [6]: did not have any effect | inhibition of translation in LP1/luciferase reporter system (LP1/luciferase RNA): effective at inhibiting translation | change in LANA level, recurrent application (LANA): no change | effect on LANA expression, single application (IFA and Western blot) (LANA): no effect

H-RRRRRFFRRRRC-NH2 [LP2]
LANA protein level (IFA and Western blot) (LANA): caused reduction | LANA staining by IFA after three treatments (LANA): much weaker | reduction in LANA protein level after the second application (LANA): over 60%

H-RRRRRFFRRRRC-NH2 [P-PMO-F1]
cells with green fluorescence at 24, 48 and 72 h (fluorescence microscopy) (BCBL-1 cells [7]; BCBL-1 cells treated 4 h with 8 μM, rinsed, harvested 24, 48 and 72 h later): almost all cells | cells with green fluorescence at 24, 48 and 72 h (flow cytometry) (BCBL-1 cells [7]; BCBL-1 cells treated 4 h with 8 μM, rinsed, harvested 24, 48 and 72 h later, all three time points): over 95% | fluorescence of cells by flow cytometry (BCBL-1 cells [7]; BCBL-1 cells, 8 μM, treated for 4 h, flow cytometry, 525 nm band pass filter): high percentage | green fluorescence in treated cells at day 7 (BCBL-1 cells [7]; BCBL-1 cells, day 7 after treatment, reduced intensity, data not shown): still observed

H-RRRRRFFRRRRC-NH2 [mRP1]
change in RTA expression by Western blot (RTA [3]): no effect

tetradecanoyl phorbol acetate [TPA, reference compound]
RTA-positive cells by IFA after TPA induction, no P-PMO (RTA [1]): approximately 20% | RTA-positive cells by flow cytometry after TPA induction, no P-PMO (RTA [4]): approximately 25% | increase of KSHV viral DNA level by TPA induction, in cells (KSHV): 1.84 fold | increase of KSHV viral DNA level by TPA induction, in culture supernatant (KSHV): 2.75 fold
